In PubChem BioAssay (NCI):
Where “and” joins values, the source holds several entries; their conditions need not be identical. Identical values can stand only once.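 Values below derive from 48-hour exposures of cells grown in 96-well plates, with endpoints linearly interpolated between the two concentrations bracketing the appropriate inhibition level. GI50 marks 50% less growth. At the TGI there is no net growth.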

Tests used:
Test in all cases: DTP human tumour cell line panel, 48 h
A498 renal = system: A498 renal
HCT-116 colon = system: HCT-116 colon
HCT-15 colon = system: HCT-15 colon
M14 melanoma = system: M14 melanoma
NCI-H226 lung = system: NCI-H226 lung
SF-268 CNS = system: SF-268 CNS
SF-295 CNS = system: SF-295 CNS
SK-OV-3 ovarian = system: SK-OV-3 ovarian
SW-620 colon = system: SW-620 colon
NCI/ADR-RES ovarian = system: NCI/ADR-RES ovarian

| SMILES | TGI (A498 renal) | TGI (HCT-116 colon) | TGI (HCT-15 colon) | TGI (M14 melanoma) | TGI (NCI-H226 lung) | TGI (SF-268 CNS) | TGI (SF-295 CNS) | TGI (SK-OV-3 ovarian) | TGI (SW-620 colon) | GI50 (A498 renal) | GI50 (HCT-116 colon) | GI50 (HCT-15 colon) | GI50 (M14 melanoma) | GI50 (NCI-H226 lung) | GI50 (SF-268 CNS) | GI50 (SF-295 CNS) | GI50 (SK-OV-3 ovarian) | GI50 (SW-620 colon) | GI50 (NCI/ADR-RES ovarian) | TGI (NCI/ADR-RES ovarian) |
| --- | --- | --- | --- | --- | --- | --- | --- | --- | --- | --- | --- | --- | --- | --- | --- | --- | --- | --- | --- | --- |
| O=C1c2ccccc2C2(O)Oc3cccc(O)c3C12O (configuration not stated) | > 100 µM | > 100 µM | > 100 µM | > 100 µM | > 100 µM | > 100 µM | > 100 µM | > 100 µM | > 100 µM |  |  |  |  |  |  |  |  |  |  |  |
| Cn1cnc([N+](=O)[O-])c1Sc1nnc(C(F)(F)F)n1C | > 100 µM | 32.5 µM |  | 37.2 µM | > 100 µM | > 100 µM | > 100 µM | > 100 µM | 43.3 µM |  |  |  |  |  |  |  |  |  |  |  |
| O=C1NC(=S)NC(=O)C1=Cc1ccc2ccccc2n1 | > 100 µM | > 100 µM | > 100 µM | > 100 µM | > 100 µM | > 100 µM | > 100 µM | > 100 µM | > 100 µM |  |  |  |  |  |  |  |  |  |  |  |
| C1C[OH+]CC[OH+]CC[OH+]CC[OH+]CC[OH+]CC[OH+]1.[Cl-].[Ta+5] | > 100 µM | > 100 µM | > 100 µM | > 100 µM | 30.5 µM | > 100 µM | > 100 µM | > 100 µM | > 100 µM | > 100 µM | > 100 µM | > 100 µM | > 100 µM | 13.3 µM | > 100 µM | > 100 µM | > 100 µM | > 100 µM |  |  |
| O=C(/C=C/c1ccc(Cl)cc1)c1ccncc1 | 88.7 µM | > 100 µM | > 100 µM | > 100 µM | > 100 µM | > 100 µM | > 100 µM | > 100 µM | > 100 µM |  |  |  |  |  |  |  |  |  |  |  |
| C=CCNC(=S)OCCCCCCCCCC | 33.3 µM | 30.6 µM | 29.4 µM | 32.7 µM |  | 33.6 µM | 34.5 µM | 43.3 µM | 32.7 µM |  |  |  |  |  |  |  |  |  |  |  |
| COC1(OC)c2ccccc2C2(O)c3ccccc3C(=O)C12 (configuration not stated) |  | > 100 µM | > 100 µM | > 100 µM | > 100 µM | > 100 µM | > 100 µM | > 100 µM | > 100 µM |  |  |  |  |  |  |  |  |  |  |  |
| COc1ccc(-c2c(C#N)c(N)nc3c2CCCc2ccc(F)cc2-3)cc1OC |  | 11 µM | 0.504 µM | 0.402 µM | > 100 µM | > 100 µM |  | > 92.3 µM | > 38.8 µM |  | 0.187 µM | < 0.0497 µM | 0.0758 µM | < 0.01 µM | 0.0335 µM | < 0.01 µM | 4.27 µM |  | 0.48 µM | > 100 µM |
| CC(C)(C)C(=O)OCC(COC(=O)C(C)(C)C)[N+](=O)[O-] |  | > 100 µM | > 100 µM | > 100 µM | > 100 µM | > 100 µM | > 100 µM | > 100 µM | > 100 µM |  |  |  |  |  |  |  |  |  |  |  |
| CCOC(=O)C1(C(=O)OCC)CC=C(C)CC12C(=O)Nc1ccccc12 (configuration not stated) | > 100 µM | > 100 µM | > 100 µM | > 100 µM | > 100 µM | > 100 µM | > 100 µM | > 100 µM | > 100 µM |  |  |  |  |  |  |  |  |  |  |  |
| O=[N+]([O-])c1ccc(O)c2ncccc12 |  | > 100 µM and 12.5 µM | > 100 µM and 18.8 µM | > 100 µM and 10.5 µM | > 100 µM and 18.6 µM | > 100 µM and 16 µM | 82.4 µM and 13.1 µM | > 100 µM and 15.7 µM | > 100 µM and 18.6 µM |  |  |  |  |  |  | 22 µM and 2.28 µM |  |  |  |  |
| COc1ccc(N2C(=O)C3c4[nH]c5ccccc5c4C4CCC(C(C)(C)C)CC4C3C2=O)cc1OC (configuration not stated) | 41.4 µM | 31.4 µM | > 100 µM | > 100 µM | 38.8 µM | 38.3 µM | 42.6 µM | 45 µM | 72 µM |  |  |  |  |  |  |  |  |  |  |  |
| O=C(O/N=C1/CCCC/C1=C\c1ccccc1)c1ccc(Cl)cc1 |  | > 100 µM | > 100 µM | > 100 µM | > 100 µM | > 100 µM | > 100 µM | > 100 µM | > 100 µM |  |  |  |  |  |  |  |  |  |  |  |
| COC(=O)c1ccccc1N=Cc1ccc(N(CCC#N)S(=O)(=O)c2ccccc2)cc1 | > 100 µM | > 100 µM | > 100 µM | > 100 µM | > 100 µM | > 100 µM | > 100 µM | > 100 µM | > 100 µM |  |  |  |  |  |  |  |  |  |  |  |
| COc1cc(/C=C2\CCc3ccccc3C2=O)cc(OC)c1OC |  | 28 µM | 34.5 µM | 30 µM | 36.8 µM | 30.3 µM | 28.6 µM | 35.5 µM | 31 µM |  |  |  |  |  |  |  |  |  |  |  |
| COc1ccc(S(=O)(=O)N/N=C(\C)CN2C(=O)c3ccccc3C2=O)cc1 | > 100 µM | > 100 µM | > 100 µM | > 100 µM | > 100 µM | > 100 µM | > 100 µM | > 100 µM | > 100 µM |  |  |  |  |  |  |  |  |  |  |  |
| COc1cccc2c1C(=O)c1c(O)c3c(c(O)c1C2=O)C[C@@](O)(/C(C)=N\O)C[C@@H]3OC1CC(N)C(O)C(C)O1 (some centres not stated) | 3.31 µM | 7.55 µM | > 100 µM | 6.78 µM | 7.52 µM | 5.77 µM | 7.84 µM | 11.7 µM | 10.3 µM |  |  |  |  |  |  |  |  |  |  |  |
| COC(=O)C(=O)C(C#N)c1ccc(Cl)c(Cl)c1 (configuration not stated) |  | > 100 µM | > 100 µM | > 100 µM | > 100 µM | > 100 µM | > 100 µM | > 100 µM | > 100 µM |  |  |  |  |  |  |  |  |  |  |  |
| CS(=O)(=O)CS(=O)CS(=O)CS(=O)CC(NC(=O)CCC(N)C(=O)O)C(=O)O (configuration not stated) |  | > 100 µM | > 100 µM | > 100 µM |  | > 100 µM | > 100 µM |  | > 100 µM |  |  |  |  |  |  |  |  |  |  | > 100 µM |
| Cc1nn(C)c(=O)c2nn(-c3ccccc3)c(C)c12 | > 100 µM | > 100 µM | > 100 µM | > 100 µM | > 100 µM | > 100 µM | > 100 µM | > 100 µM | > 100 µM |  |  |  |  |  |  |  |  |  |  |  |
| O=C1CCC(=O)C12CCc1cccc(O)c12 |  |  | > 100 µM | > 100 µM |  | > 100 µM | > 100 µM | > 100 µM | > 100 µM |  |  |  |  |  |  |  |  |  |  |  |
| Cc1ccc([Se][Se]c2ccc(C)cc2)cc1 | > 100 µM | > 100 µM | > 100 µM |  | > 100 µM | 88.1 µM | 61.6 µM | > 100 µM | 51.6 µM |  |  |  |  |  |  |  |  |  |  |  |
| Nc1nc(Nc2ccc3c(c2)CCC(N2CCCC2)CC3)nn1-c1cc2c(nn1)-c1ccccc1CCC2 (configuration not stated) | 1.24 µM | 2.02 µM | 2.14 µM | 2.27 µM |  | 3.07 µM | 3.54 µM | 2.22 µM | 3.17 µM | 0.274 µM | 0.754 µM | 0.839 µM | 0.957 µM |  | 1.25 µM | 1.85 µM | 0.895 µM | 1.31 µM |  |  |
